Each block holds one molecule with its values, some of them ahead of it. *1 amine or outer side, *2 acyl side, *3 side chain or, on linkers, in order; H or OH if unused. Where a SMILES comes first, the peptide text is derived from it. Bridges are numbered along the chain shown (N, C = ends). Where no end group is shown, it is not given here. Side-chain parts run from the residue outwards. [ ]: non-standard residue; d: D form. The star is where a group is joined. γGlu = O=C(O)[C@H](CCC(=O)[*:2])N[*:1]; Palmitoyl = CCCCCCCCCCCCCCCC(=O)*; Aib = CC(C)(N)C(=O)O
How the values were obtained:
Assay type in all cases: cell-based
GLP-1 receptor = target: T1, GLP-1 receptor (Homo sapiens, UniProt P43220); assay: cAMP induction, firefly luciferase reporter assay in HEK293 cells co-transfected with GLP-1 receptor
T1 construct: expressed in transfected cells; host or cells: HEK293
From the text: (§1) This example describes an exemplary method of testing the biological activity of the peptides of the present disclosures, which method involves assaying cAMP synthesis.

glucagon receptor = target: T2, glucagon receptor (Homo sapiens, UniProt P47871); assay: cAMP induction, firefly luciferase reporter assay in HEK293 cells co-transfected with glucagon receptor; conditions: EC50 (nM) at glucagon receptor, Table 16, Example 24
T2 construct: expressed in transfected cells; host or cells: HEK293
From the text: as §1

GIP receptor = target: T3, GIP receptor (Homo sapiens, UniProt P48546); assay: cAMP induction, firefly luciferase reporter assay in HEK293 cells co-transfected with GIP receptor; conditions: EC50 (nM) at GIP Receptor
T3 sequence (P48546 22-466): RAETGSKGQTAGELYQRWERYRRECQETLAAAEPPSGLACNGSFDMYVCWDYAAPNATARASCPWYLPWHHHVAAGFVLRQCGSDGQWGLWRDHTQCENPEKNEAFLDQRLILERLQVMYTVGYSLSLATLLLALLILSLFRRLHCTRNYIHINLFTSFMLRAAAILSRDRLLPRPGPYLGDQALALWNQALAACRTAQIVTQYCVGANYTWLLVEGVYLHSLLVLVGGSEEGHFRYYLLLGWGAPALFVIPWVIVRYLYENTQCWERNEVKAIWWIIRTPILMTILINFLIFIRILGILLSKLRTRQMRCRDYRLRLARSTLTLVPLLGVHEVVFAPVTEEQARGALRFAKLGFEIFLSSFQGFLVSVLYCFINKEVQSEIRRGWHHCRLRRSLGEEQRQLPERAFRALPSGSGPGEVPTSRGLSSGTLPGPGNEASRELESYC

T1 sequence (P43220 24-463): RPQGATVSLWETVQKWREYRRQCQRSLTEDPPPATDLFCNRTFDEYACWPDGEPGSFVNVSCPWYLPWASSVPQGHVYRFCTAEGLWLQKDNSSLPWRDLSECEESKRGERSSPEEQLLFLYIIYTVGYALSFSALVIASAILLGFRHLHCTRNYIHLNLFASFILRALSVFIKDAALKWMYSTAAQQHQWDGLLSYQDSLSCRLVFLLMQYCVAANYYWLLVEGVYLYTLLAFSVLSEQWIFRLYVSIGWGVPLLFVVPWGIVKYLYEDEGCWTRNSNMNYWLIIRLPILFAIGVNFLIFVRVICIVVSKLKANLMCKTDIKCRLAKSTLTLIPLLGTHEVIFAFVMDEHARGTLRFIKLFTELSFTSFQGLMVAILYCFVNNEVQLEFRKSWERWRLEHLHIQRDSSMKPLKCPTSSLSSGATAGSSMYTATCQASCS
T2 sequence (P47871 26-477): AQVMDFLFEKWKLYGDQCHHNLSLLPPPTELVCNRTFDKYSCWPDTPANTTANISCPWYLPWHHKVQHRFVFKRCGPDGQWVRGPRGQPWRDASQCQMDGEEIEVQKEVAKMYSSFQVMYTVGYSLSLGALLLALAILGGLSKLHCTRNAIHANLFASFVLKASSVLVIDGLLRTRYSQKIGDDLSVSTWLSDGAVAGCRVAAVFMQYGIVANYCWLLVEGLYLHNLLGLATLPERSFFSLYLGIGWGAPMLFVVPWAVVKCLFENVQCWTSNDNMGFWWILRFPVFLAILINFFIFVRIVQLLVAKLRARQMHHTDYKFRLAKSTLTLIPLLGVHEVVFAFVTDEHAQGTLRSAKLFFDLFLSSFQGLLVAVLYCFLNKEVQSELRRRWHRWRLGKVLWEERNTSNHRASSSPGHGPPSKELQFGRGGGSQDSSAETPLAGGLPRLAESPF

Molecule: H[Aib]QGTFTSDYSKYLDERAAQDFVQWLLDAGPSSGAPPPSK([γGlu-γGlu-Palmitoyl])G-NH2 [SEQ ID NO: 204]
- EC50 (GLP-1 receptor; EC50 (nM) at GLP-1 receptor, Table 16, Example 24): 0.001 nM
- EC50 (glucagon receptor): 0.003 nM

Molecule: CC[C@H](C)[C@H](NC(=O)[C@H](CO)NC(=O)[C@H](Cc1ccc(O)cc1)NC(=O)[C@H](CC(=O)O)NC(=O)[C@H](CO)NC(=O)[C@@H](NC(=O)[C@H](Cc1ccccc1)NC(=O)[C@@H](NC(=O)CNC(=O)[C@H](CCC(N)=O)NC(=O)C(C)(C)NC(=O)[C@@H](N)Cc1ccc(O)cc1)[C@@H](C)O)[C@@H](C)O)C(=O)N[C@@H](Cc1ccc(O)cc1)C(=O)N[C@@H](CC(C)C)C(=O)N[C@@H](CC(=O)O)C(=O)N[C@@H](CCCCN)C(=O)N[C@H]1CCC(=O)NCCCC[C@@H](C(=O)N[C@@H](Cc2ccccc2)C(=O)N[C@H](C(=O)N[C@@H](CC(N)=O)C(=O)N[C@@H](Cc2c[nH]c3ccccc23)C(=O)N[C@@H](CC(C)C)C(=O)N[C@@H](CC(C)C)C(=O)N[C@@H](C)C(=O)NCC(=O)NCC(=O)N2CCC[C@H]2C(=O)N[C@@H](CO)C(=O)N[C@@H](CO)C(=O)NCC(=O)N[C@@H](C)C(=O)N2CCC[C@H]2C(=O)N2CCC[C@H]2C(=O)N2CCC[C@H]2C(=O)N[C@@H](CO)C(=O)N[C@@H](CS)C(N)=O)C(C)C)NC(=O)C(C)(C)NC(=O)[C@H](C)NC(=O)[C@H](C)NC1=O [compound 58] (H-Y[Aib]QGTFTSDYSIYLDKEAA[Aib]KFVNWLLAGGPSSGAPPPSC-NH2; lactam 17-21)
- EC50 (GLP-1 receptor; EC50 (nM) at GLP-1 Receptor, Table 6, Example 12): 0.014 nM
- EC50 (GIP receptor; Table 6, Example 12): 0.005 nM

Molecule: CCCCCCCCCCCCCCCCC(CC(=O)NCCCC[C@H](NC(=O)[C@H](CO)NC(=O)[C@@H]1CCCN1C(=O)[C@@H]1CCCN1C(=O)[C@@H]1CCCN1C(=O)[C@H](C)NC(=O)CNC(=O)[C@H](CO)NC(=O)[C@H](CO)NC(=O)[C@@H]1CCCN1C(=O)CNC(=O)CNC(=O)[C@H](C)NC(=O)[C@H](CC(C)C)NC(=O)[C@H](CC(C)C)NC(=O)[C@H](Cc1c[nH]c2ccccc12)NC(=O)[C@H](CC(N)=O)NC(=O)[C@@H](NC(=O)[C@H](Cc1ccccc1)NC(=O)[C@H](CCC(=O)O)NC(=O)C(C)(C)NC(=O)[C@H](C)NC(=O)[C@H](C)NC(=O)[C@H](CCC(N)=O)NC(=O)[C@H](CCCCN)NC(=O)[C@H](CC(=O)O)NC(=O)[C@H](CC(C)C)NC(=O)[C@H](Cc1ccc(O)cc1)NC(=O)[C@@H](NC(=O)[C@H](CO)NC(=O)[C@H](Cc1ccc(O)cc1)NC(=O)[C@H](CC(=O)O)NC(=O)[C@H](CO)NC(=O)[C@@H](NC(=O)[C@H](Cc1ccccc1)NC(=O)[C@@H](NC(=O)CNC(=O)[C@H](CCC(=O)O)NC(=O)C(C)(C)NC(=O)[C@@H](N)Cc1ccc(O)cc1)[C@@H](C)O)[C@@H](C)O)[C@@H](C)CC)C(C)C)C(=O)NCC(N)=O)C(=O)O (some centres unmarked) [SEQ ID NO: 140]
- EC50 (GLP-1 receptor; EC50 (nM) at GLP-1 Receptor, Table 9, Example 15): 0.001 nM
- EC50 (GIP receptor; Table 9, Example 15): 0.001 nM

- EC50 (GLP-1 receptor; EC50 (nM) at GLP-1 Receptor, Table 7, Example 13): 0.0031 nM
- EC50 (GIP receptor; Table 7, Example 13): 0.021 nM
Molecule: CCCCCCCCCCCCCCCC(=O)N[C@@H](CCC(=O)N[C@@H](CCC(=O)NCCCC[C@H](NC(=O)[C@H](CC(=O)O)NC(=O)[C@H](CO)NC(=O)[C@@H](NC(=O)[C@H](Cc1ccccc1)NC(=O)[C@@H](NC(=O)CNC(=O)[C@H](CCC(N)=O)NC(=O)C(C)(C)NC(=O)[C@@H](N)Cc1ccc(O)cc1)[C@@H](C)O)[C@@H](C)O)C(=O)N[C@@H](CO)C(=O)N[C@H](C(=O)N[C@@H](Cc1ccc(O)cc1)C(=O)N[C@@H](CC(C)C)C(=O)N[C@@H](CC(=O)O)C(=O)N[C@@H](CCCCN)C(=O)N[C@@H](CCC(N)=O)C(=O)N[C@@H](C)C(=O)N[C@@H](C)C(=O)NC(C)(C)C(=O)N[C@@H](CCC(=O)O)C(=O)N[C@@H](Cc1ccccc1)C(=O)N[C@H](C(=O)N[C@@H](CC(N)=O)C(=O)N[C@@H](Cc1c[nH]c2ccccc12)C(=O)N[C@@H](CC(C)C)C(=O)N[C@@H](CC(C)C)C(=O)N[C@@H](CC(=O)O)C(=O)N[C@H](C(N)=O)[C@@H](C)O)C(C)C)[C@@H](C)CC)C(=O)O)C(=O)O [compound 92] (H-Y[Aib]QGTFTSDK([γGlu-γGlu-Palmitoyl])SIYLDKQAA[Aib]EFVNWLLDT-NH2; N-terminus assumed)
